{
  "source": "PubChem BioAssay AID330",
  "about": "(DTP/NCI, 2004)",
  "tested_on": "P388 leukemia ip, CD2F1 mice, survival T/C",
  "experiment": "NCI In Vivo Anticancer Drug Screen. Data for tumor model P388 Leukemia (intraperitoneal) in CD2F1 (CDF1) mice",
  "conditions": "endpoint: median survival time, higher = longer survival",
  "summary_of_the_method": "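Mice carrying the transplanted tumor received test compound or vehicle. Survival was recorded in each group, and the value is the treated-group measurement divided by that of the vehicle-treated control group.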",
  "key": {"[1]": {"conditions": "dose: 60.0 mg/kg/injection, schedule: Q01DX005 (ip), vehicle: saline with Tween-80"}, "[2]": {"conditions": "dose: 120.0 mg/kg/injection, schedule: Q01DX005 (ip), vehicle: saline with Tween-80"}, "[3]": {"conditions": "dose: 240.0 mg/kg/injection, schedule: Q01DX005 (ip), vehicle: saline with Tween-80"}, "[4]": {"conditions": "dose: 50.0 mg/kg/injection, schedule: Q01DX009 (ip), vehicle: saline"}, "[5]": {"conditions": "dose: 100.0 mg/kg/injection, schedule: Q01DX009 (ip), vehicle: saline"}, "[6]": {"conditions": "dose: 100.0 mg/kg/injection, schedule: Q04DX003 (ip), vehicle: saline with Tween-80"}, "[7]": {"conditions": "dose: 200.0 mg/kg/injection, schedule: Q04DX003 (ip), vehicle: saline with Tween-80"}, "[8]": {"conditions": "dose: 400.0 mg/kg/injection, schedule: Q04DX003 (ip), vehicle: saline with Tween-80"}, "[9]": {"conditions": "dose: 50.0 mg/kg/injection, schedule: Q01DX005 (ip), vehicle: saline with Tween-80"}, "[10]": {"conditions": "dose: 100.0 mg/kg/injection, schedule: Q01DX005 (ip), vehicle: saline with Tween-80"}},
  "note": "“And” between values parts separate entries of the source, which are not always exact repeats. Identical values can stand only once. Toxic doses and inconclusive results are not listed.",
  "data": [
    {"smiles": "O=c1[nH]c2nc(SCc3ccccc3)n(Cc3ccccc3)c2c(=O)n1OS(=O)(=O)c1ccccc1", "values": [
      {"measurement": "T/C", "setting": "[1]", "value": "98 % of control"},
      {"measurement": "T/C", "setting": "[2]", "value": "90 % of control"},
      {"measurement": "T/C", "setting": "[3]", "value": "90 % of control"}
    ]},
    {"smiles": "C[N+](C)(C)CCC(=O)c1ccc([N+](=O)[O-])cc1", "values": [
      {"measurement": "T/C", "setting": "[4]", "value": "109 % of control"},
      {"measurement": "T/C", "setting": "[5]", "value": "118 % of control"}
    ]},
    {"smiles": "C=CC(=O)NC(C)(C)C(=O)O", "values": [
      {"measurement": "T/C", "setting": "[4]", "value": "99 % of control"},
      {"measurement": "T/C", "setting": "[5]", "value": "97 % of control"},
      {"measurement": "T/C", "setting": "dose: 200.0 mg/kg/injection, schedule: Q01DX009 (ip), vehicle: saline", "value": "99 % of control"}
    ]},
    {"smiles": "O=S(CF)c1ccc(Cl)cc1", "note": "(centres undefined)", "values": [
      {"measurement": "T/C", "setting": "[6]", "value": "93 % of control"},
      {"measurement": "T/C", "setting": "[7]", "value": "102 % of control"},
      {"measurement": "T/C", "setting": "[8]", "value": "107 % of control"}
    ]},
    {"smiles": "C[n+]1ccc(Nc2ccc(NC(=O)c3ccc(Nc4cc[n+](C)c5ccc(N)cc45)cc3N)cc2)cc1", "values": [
      {"measurement": "T/C", "setting": "dose: 0.18 mg/kg/injection, schedule: Q01DX009 (ip), vehicle: saline with Tween-80", "value": "111 % of control"},
      {"measurement": "T/C", "setting": "dose: 0.27 mg/kg/injection, schedule: Q01DX009 (ip), vehicle: saline with Tween-80", "value": "124 % of control"},
      {"measurement": "T/C", "setting": "dose: 1.0 mg/kg/injection, schedule: Q01DX009 (ip), vehicle: saline with Tween-80", "value": "157 % of control"},
      {"measurement": "T/C", "setting": "dose: 1.33 mg/kg/injection, schedule: Q01DX009 (ip), vehicle: saline with Tween-80", "value": "154 % of control"},
      {"measurement": "T/C", "setting": "dose: 1.5 mg/kg/injection, schedule: Q01DX009 (ip), vehicle: saline with Tween-80", "value": "163 % of control"},
      {"measurement": "T/C", "setting": "dose: 2.0 mg/kg/injection, schedule: Q01DX009 (ip), vehicle: saline with Tween-80", "value": "200 % of control"},
      {"measurement": "T/C", "setting": "dose: 3.0 mg/kg/injection, schedule: Q01DX009 (ip), vehicle: saline with Tween-80", "value": "245 % of control"},
      {"measurement": "T/C", "setting": "dose: 3.13 mg/kg/injection, schedule: Q01DX009 (ip), vehicle: saline with Tween-80", "value": "271 % of control"},
      {"measurement": "T/C", "setting": "dose: 4.5 mg/kg/injection, schedule: Q01DX009 (ip), vehicle: saline with Tween-80", "value": "257 % of control"},
      {"measurement": "T/C", "setting": "dose: 5.0 mg/kg/injection, schedule: Q04DX003 (ip), vehicle: saline with Tween-80", "value": "154 % of control"},
      {"measurement": "T/C", "setting": "dose: 6.25 mg/kg/injection, schedule: Q01DX009 (ip), vehicle: saline with Tween-80", "value": "274 % of control"},
      {"measurement": "T/C", "setting": "dose: 7.5 mg/kg/injection, schedule: Q04DX003 (ip), vehicle: saline with Tween-80", "value": "163 % of control"},
      {"measurement": "T/C", "setting": "dose: 12.5 mg/kg/injection, schedule: Q01DX009 (ip), vehicle: saline with Tween-80", "value": "275 % of control"},
      {"measurement": "T/C", "setting": "dose: 25.0 mg/kg/injection, schedule: Q01DX009 (ip), vehicle: saline with Tween-80", "value": "100 % of control"}
    ]},
    {"smiles": "CC(=O)OCC(OC(C)=O)C(Cl)CCl", "note": "(centres undefined)", "values": [
      {"measurement": "T/C", "setting": "dose: 50.0 mg/kg/injection, schedule: Q01DX005 (ip), vehicle: saline", "value": "103 % of control"},
      {"measurement": "T/C", "setting": "dose: 100.0 mg/kg/injection, schedule: Q01DX005 (ip), vehicle: saline", "value": "101 % of control"},
      {"measurement": "T/C", "setting": "dose: 200.0 mg/kg/injection, schedule: Q01DX005 (ip), vehicle: saline", "value": "107 % of control"}
    ]},
    {"smiles": "CCCCCCCCCCCCNNC(=O)[C@@H]1[C@H](c2cc(OC)c(OC)c(OC)c2)c2cc3c(cc2[C@H](O)[C@H]1CO)OCO3", "values": [
      {"measurement": "T/C", "setting": "[9]", "value": "117 % of control and 124 % of control"},
      {"measurement": "T/C", "setting": "[10]", "value": "122 % of control"}
    ]},
    {"smiles": "CCCCCCCc1c(C)[nH]c2cc(OC)ccc2c1=O", "values": [
      {"measurement": "T/C", "setting": "dose: 50.0 mg/kg/injection, schedule: Q01DX009 (ip), vehicle: saline with Tween-80", "value": "93 % of control"},
      {"measurement": "T/C", "setting": "dose: 100.0 mg/kg/injection, schedule: Q01DX009 (ip), vehicle: saline with Tween-80", "value": "95 % of control"},
      {"measurement": "T/C", "setting": "dose: 200.0 mg/kg/injection, schedule: Q01DX009 (ip), vehicle: saline with Tween-80", "value": "94 % of control"}
    ]},
    {"smiles": "CC1(C)OC2(C)CCC1C1C2N1C(=O)Nc1ccccc1", "note": "(centres undefined)", "values": [
      {"measurement": "T/C", "setting": "[9]", "value": "101 % of control"},
      {"measurement": "T/C", "setting": "[10]", "value": "106 % of control"},
      {"measurement": "T/C", "setting": "dose: 200.0 mg/kg/injection, schedule: Q01DX005 (ip), vehicle: saline with Tween-80", "value": "101 % of control"}
    ]},
    {"smiles": "CCC1=Cc2cc([N+](=O)[O-])cc(OC)c2OC12SCCN2C", "note": "(centres undefined)", "values": [
      {"measurement": "T/C", "setting": "[6]", "value": "100 % of control"},
      {"measurement": "T/C", "setting": "[7]", "value": "103 % of control"},
      {"measurement": "T/C", "setting": "[8]", "value": "103 % of control"}
    ]},
    {"smiles": "O=C(NC(CCSSCCC(NC(=O)OCc1ccccc1)C(=O)OCc1ccccc1)C(=O)OCc1ccccc1)OCc1ccccc1", "note": "(centres undefined)", "values": [
      {"measurement": "T/C", "setting": "dose: 12.5 mg/kg/injection, schedule: Q01DX009 (ip), vehicle: other", "value": "91 % of control"},
      {"measurement": "T/C", "setting": "dose: 25.0 mg/kg/injection, schedule: Q01DX009 (ip), vehicle: other", "value": "98 % of control"},
      {"measurement": "T/C", "setting": "dose: 50.0 mg/kg/injection, schedule: Q01DX009 (ip), vehicle: other", "value": "94 % of control"},
      {"measurement": "T/C", "setting": "dose: 100.0 mg/kg/injection, schedule: Q01DX009 (ip), vehicle: other", "value": "98 % of control"},
      {"measurement": "T/C", "setting": "dose: 200.0 mg/kg/injection, schedule: Q01DX009 (ip), vehicle: other", "value": "100 % of control"}
    ]},
    {"smiles": "COc1ccc(C(=O)CCN(C)C)cc1", "values": [
      {"measurement": "T/C", "setting": "[4]", "value": "104 % of control"},
      {"measurement": "T/C", "setting": "[5]", "value": "104 % of control"}
    ]},
    {"smiles": "NNC(=O)CNc1cc(Cl)cc(Cl)c1", "values": [
      {"measurement": "T/C", "setting": "[1]", "value": "113 % of control"},
      {"measurement": "T/C", "setting": "[2]", "value": "97 % of control"},
      {"measurement": "T/C", "setting": "[3]", "value": "100 % of control"}
    ]}
  ]
}
